Data as given in paper PMC8509428, “The Phenoxyalkyltriazine Antagonists for 5-HT6 Receptor with Promising Procognitive and Pharmacokinetic Properties In Vivo in Search for a Novel Therapeutic Approach to Dementia Diseases” (International Journal of Molecular Sciences, 2021).
“And” between values parts separate entries of the source, which are not always exact repeats. Identical values can stand only once. Counter-ions that a name gives are not always drawn. Like-named read-outs stand apart in the source and are kept apart here.

What was measured:
[1] = tested on: rats; details: i.p.; ref 10 (AG-1), 11 (AG-2), 12 (AN-1), 13 (AN-2); cited from earlier work
[2] = biological target: 5-HT6R; details: Figure 1; ref 10 (AG-1), 11 (AG-2), 12 (AN-1), 13 (AN-2); cited from earlier work
[3] = tested on: MK-801-induced memory deficits in rats; assay: Novel object recognition (NOR) test, MK-801-induced memory impairment; assay type: in vivo, rat; details: MK-801 0.1 mg/kg i.p. + vehicle; 0.1 mg/kg
Experimental: Five days before the experiment, the rats were transferred to the laboratory, labelled and, thereafter, left to acclimate to the new environment. The animals were handling every five days before experiments to minimize the stress reaction. The protocol was adapted from the original work. The test session comprising of two trials separated by an inter-trial interval (ITI) of 1 h was carried out after 2 days of the training session. During the first trial (familiarization, T1) two identical objects (A1 and A2) were presented in the opposite corners of the open field, approximately 10 cm from the walls. During the second trial (recognition, T2) one of the A objects was replaced by a novel object B, so that the animals were presented with the A = familiar and B = novel objects. Both trials lasted for 3 min and the animals were returned to their home cages after T1.
The objects used were the metal Coca-Cola cans and the glass jars filled with sand. […] The sequence of presentations and the location of the objects were randomly assigned to each rat. After each measurement, the floor was cleaned and dried.
The animals explored the objects by looking, licking, sniffing or touching the object but not when leaning against, standing or sitting on the object. Any rat exploring the two objects for less than 5 s within 3 min of T1 or T2 was eliminated from the study. The exploration time of the objects was measured by a blind experimenter. Based on the exploration time (E) of two objects during T2, the discrimination index (DI) was calculated according to the formula: DI = (EB − EA)/(EA + […]). Using this metric, scores approaching zero reflects no preference while positive values reflect a preference for the novel object and negative numbers reflect a preference for the familiar.
MK-801, used to attenuate learning, was administered at the dose of 0.1 mg/kg (i.p.) 30 min before the familiarization phase (T1), while investigated compounds were given 60 min before T1 session. In such scheme of experiment we could observe the impact of investigated compounds on the one type of rats’ memory—episodic memory and one phase of memory process—[…].
The total exploration time in T2 was used to express the influence of the treatment on the exploratory activity of the animals.

[4] = tested on: MK-801-induced memory deficits in rats; details: cited from earlier work
[5] = biological target: T1, human serotonin 5-HT6 receptor (Homo sapiens, UniProt P50406); assay: Functional assay for 5-HT6 receptor (cAMP, 1321N1 cells)
T1 sequence (P50406 whole entry): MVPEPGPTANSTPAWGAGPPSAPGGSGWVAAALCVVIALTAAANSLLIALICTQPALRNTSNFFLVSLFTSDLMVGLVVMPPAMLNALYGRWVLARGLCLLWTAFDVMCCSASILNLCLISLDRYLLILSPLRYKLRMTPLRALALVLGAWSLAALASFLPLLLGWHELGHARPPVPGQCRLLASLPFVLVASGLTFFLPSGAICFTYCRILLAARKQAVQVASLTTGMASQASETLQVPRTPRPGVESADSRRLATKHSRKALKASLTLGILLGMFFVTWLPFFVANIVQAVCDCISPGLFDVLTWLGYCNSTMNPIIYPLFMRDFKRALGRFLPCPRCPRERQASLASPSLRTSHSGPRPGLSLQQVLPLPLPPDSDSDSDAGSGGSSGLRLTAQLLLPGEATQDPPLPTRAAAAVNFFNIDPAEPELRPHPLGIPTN

[6] = Bi-directional Caco-2 permeability assay; assay type: in vitro ADME; details: human, pH 7.4, Caco-2, 10 µM, triplicate
[7] = biological target: T2, CYP3A4 (Homo sapiens, UniProt P08684); assay: CYP3A4 P450-Glo assay; assay type: in vitro ADME; details: 10 μM of compound
T2 construct: purchased Promega
T2 sequence (P08684 whole entry): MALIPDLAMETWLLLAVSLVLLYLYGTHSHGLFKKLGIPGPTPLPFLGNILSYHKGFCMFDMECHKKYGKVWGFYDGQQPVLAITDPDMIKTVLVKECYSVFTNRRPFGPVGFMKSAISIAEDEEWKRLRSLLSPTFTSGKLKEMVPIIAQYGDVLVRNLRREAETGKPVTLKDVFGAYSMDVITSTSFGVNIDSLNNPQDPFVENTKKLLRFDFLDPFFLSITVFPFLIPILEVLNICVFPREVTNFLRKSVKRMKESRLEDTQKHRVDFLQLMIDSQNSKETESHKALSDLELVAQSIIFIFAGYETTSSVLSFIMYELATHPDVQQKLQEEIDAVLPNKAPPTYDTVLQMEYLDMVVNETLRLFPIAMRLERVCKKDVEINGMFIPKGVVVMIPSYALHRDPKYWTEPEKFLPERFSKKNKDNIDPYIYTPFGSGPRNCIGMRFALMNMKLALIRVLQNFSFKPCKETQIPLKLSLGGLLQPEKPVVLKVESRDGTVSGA
Experimental: The luminescent CYP3A4 P450-Glo™ Promega® (Madison, WI, USA) was used for the investigation of potential drug-drug interactions. All assays and protocols were described before. The compounds were tested in triplicate at the final concentrations in the range from 0.01 to 25 μM. The luminescent signal was measured by using a microplate reader EnSpire PerkinElmer (Waltham, MA, USA).

[8] = biological target: T1, human serotonin 5-HT6 receptor; design: host or cells: 1321N1; details: cited from earlier work
[9] = tested on: hepatoma HepG2 cell line; details: 50 µM; cited from earlier work
[10] = biological target: 5-HT7R; details: ± SD; read-out: Ki 5-HT7 (converted); cited from earlier work
[11] = tested on: rats; assay: Forced swim test (FST); assay type: in vivo, rat; details: for Immobility Time: 60 min before test, mean ± SEM
Experimental: The experiment was carried out according to the method of [54]. On the first day of the experiment, the animals were gently individually placed in Plexiglas cylinders (40 cm high, 18 cm in diameter) containing 15 cm of water maintained at 23–25 °C for 15 min. On removal from water, the rats were placed for 30 min in a Plexiglas box under 60-W bulb to dry. On the following day (24 h later), the rats were replaced in the cylinder and the total duration of immobility was recorded during the whole 5-min test period. The immobility was assigned when no additional activity was observed other than that necessary to keep the rat’s head above the water. Fresh water was used for each animal.

[12] = tested on: Salmonella Typhimurium TA100; assay type: cell-based
[13] = cited from earlier work
[14] = biological target: T3, 5-HT2A receptor (Homo sapiens, UniProt P28223); assay: Functional assay for 5-HT2A receptor (aequorin, CHO-K1 cells); assay type: cell-based
T3 construct: expressed in transfected cells; host or cells: CHO-K1
T3 sequence (P28223 whole entry): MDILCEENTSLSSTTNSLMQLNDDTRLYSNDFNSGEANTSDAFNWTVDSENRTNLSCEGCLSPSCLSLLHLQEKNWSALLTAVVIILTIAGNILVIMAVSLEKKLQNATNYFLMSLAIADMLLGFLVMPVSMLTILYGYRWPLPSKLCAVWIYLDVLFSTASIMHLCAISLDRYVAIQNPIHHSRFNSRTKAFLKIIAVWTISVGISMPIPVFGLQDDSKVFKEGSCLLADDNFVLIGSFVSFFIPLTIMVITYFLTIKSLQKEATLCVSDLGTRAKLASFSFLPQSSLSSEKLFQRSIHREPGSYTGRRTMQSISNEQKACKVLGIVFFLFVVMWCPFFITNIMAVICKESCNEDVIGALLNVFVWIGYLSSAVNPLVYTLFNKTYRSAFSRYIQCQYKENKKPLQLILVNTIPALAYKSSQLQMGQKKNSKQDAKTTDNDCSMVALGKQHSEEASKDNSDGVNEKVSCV

[15] = tested on: rats; assay: Exploratory activity measured in the EPM test; assay type: in vivo, rat; details: for Total Distance / X Ambulation / Y Ambulation: mean ± SEM
Experimental: The experiment was performed using an EPM apparatus (details see above). Total ambulation (the total distance covered by a rat, and ambulation along X and Y axis) was taken to discern drug effects on general activity from those on open-arm exploration, during a 5-min test period (i.e., the time equal to the observation period in the EPM test). Rats’ behavior was not videotaped during the test.

[16] = biological target: T4, 5-HT1AR (Homo sapiens, UniProt P08908); assay: Radioligand binding assay (RBA), 5-HT1AR; details: ± SD; displacement of [3H]-8-OHDPAT, HEK-293 cells; read-out: Ki 5-HT1A (converted)
T4 construct: expressed in transfected cells; host or cells: HEK-293
T4 sequence (P08908 1-422): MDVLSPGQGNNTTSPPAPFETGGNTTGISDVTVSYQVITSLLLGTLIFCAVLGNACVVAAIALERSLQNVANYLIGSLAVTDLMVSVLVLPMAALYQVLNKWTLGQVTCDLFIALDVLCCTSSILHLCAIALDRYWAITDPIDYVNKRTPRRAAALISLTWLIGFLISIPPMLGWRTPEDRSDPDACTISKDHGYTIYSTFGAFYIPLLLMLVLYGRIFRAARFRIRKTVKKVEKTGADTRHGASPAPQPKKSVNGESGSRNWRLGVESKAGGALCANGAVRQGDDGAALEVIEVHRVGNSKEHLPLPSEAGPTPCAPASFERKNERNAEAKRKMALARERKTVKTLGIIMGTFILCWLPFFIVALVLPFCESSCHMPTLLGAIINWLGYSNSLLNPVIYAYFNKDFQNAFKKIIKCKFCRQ
Experimental: The cells used in the radioligand binding assays receptor 5-HT1A were stably expressed in HEK-293 cells. Transfections were performed with the use of Lipofectamine 2000. The binding procedure was accomplished via the displacement of 2.5 nM [^3H]-8-OHDPAT (135.2 Ci/mmol) for 5-HT1AR. Each compound was tested in triplicate in seven to eight different concentrations (10^−11 to 10^−4 M). The inhibition constants (Ki) were calculated using the Cheng–Prusoff equation [45] and the results are expressed as the mean of at least two independent experiments.

[17] = tested on: rats; assay: Elevated plus-maze (EPM) test; assay type: in vivo, rat; details: for Open Arms % of entries / Open Arms % of time / Open Arms Distance / Open Arms Entries / Open Arms Time: mean ± SEM
From the text: The testing procedure was based on a method described by. Plus-maze apparatus (an automated device produced by Campden Instruments Ltd. (Leicestershire, UK) made of durable, high density, non-porous black plastic, elevated to a height of 50 cm, consisted of two open arms (50 × 10 cm) and two closed arms (50 × 10 cm, and 30 cm high walls), arranged so that the two arms of each type were opposite each other. The floor of the plus-maze was made of infrared transparent material what means that there are no visible sensors. Plus-maze apparatus was connected to PC software by control chassis. The experiments were conducted in a darkened room, only the center of the maze was illuminated with low-intensity light (30 lux measured on the maze level). Each rat was gently placed in the center of the plus-maze, facing one of the closed arms, immediately after a 5-min adaptation period in a plastic black box (60 × 60 × 35 cm), to increase the overall activity in the EPM. During a 5-min test period, automated Motor Monitor System recorded the number of entries into the closed and open arms and the time spent in either type of arms. The device counted an effective arm-entry when the four paws of a rat were into any arm. The maze was thoroughly cleaned after each trial. The EPM test is an “unconditional” anxiety-like test based on rodents’ natural aversion to heights and open space.

[18] = biological target: human 5-HT6R; details: ± SD; read-out: Ki 5-HT6 (converted); cited from earlier work
[19] = biological target: dopaminergic receptor D2; details: ± SD; cited from earlier work

SMILES: COc1ccc2c(c1)c(C1=CCNCC1)cn2S(=O)(=O)c1cncc2ccccc12 [AN-1]
- dose with procognitive effect in the NOR test [1]: 1 mg/kg
- Ki [2]: 3 nM

SMILES: CN(C)CCn1cnc2ccc(NS(=O)(=O)c3ccc4c(Cl)cccc4c3)cc21 [AN-2]
- dose with procognitive effect in the NOR test [1]: 1 mg/kg
- Ki [2]: 9 nM

SMILES: C[C@]12N[C@H](Cc3ccccc31)c1ccccc12 [MK-801, MK-801 maleate, reference compound]
- Total Exploratory Time in T2 Session [3]: 42.00 ± 3.13 s and 47.07 ± 3.89 s
- Discrimination Index ([4]; MK-801 0.1 mg/kg i.p. + vehicle): −0.07 ± 0.01

SMILES: NCCc1cn(S(=O)(=O)c2c(Cl)nc3sccn23)c2ccccc12 [AG-2]
- dose with procognitive effect in the NOR test [1]: 3 mg/kg

SMILES: CN(C)CCc1c[nH]c2ccc(NS(=O)(=O)c3c(Cl)nc4sccn34)cc12 [AG-1]
- dose with procognitive effect in the NOR test [1]: 2.5 mg/kg

SMILES: COc1ccc(NS(=O)(=O)c2ccc(I)cc2)cc1N1CCN(C)CC1 [SB258585]
- 5-HT6 Antagonist Mode Emax ([5]; Table S1, % of reference antagonist (SB258585 10^-5 M)): 100%
- 5-HT6R Agonist Mode Emax ([5]; ± SEM, % of maximal agonist response (Serotonin 10^−5 M)): 2.00 ± 0.50%

SMILES: CCC(Oc1cc(Cl)ccc1Cl)c1nc(N)nc(N2CCN(C)CC2)n1 (racemic) [Compound 1, (RS)-4-[1-(2,5-dichlorophenoxy)propyl]-6-(4-methylpiperazin-1-yl)-1,3,5-triazin-2-amine]
- Papp A→B at 2 h, 10 µM [6]: 14.2 ± 0.36 ×10⁻⁶ cm/s
- Papp B→A at 2 h, 10 µM [6]: 22.2 ± 1.92 ×10⁻⁶ cm/s
- CYP3A4 activity remaining [7]: 44%
- 5-HT6 Antagonist Mode Emax ([8]; Table S1, compound 1): 98%
- 5-HT6R Agonist Mode Emax ([8]; compound 1, previous functional assays): 4.00 ± 0.00%
- hepatotoxic effect, HepG2 [9]: weak hepatotoxic effect
- Ki [10]: 5710 ± 967 nM
- Immobility Time ([11]; 1 mg/kg i.p.): 241.80 ± 18.7 s
- decrease of immobility time vs vehicle-treated group ([11]; 3 mg/kg): about 30%
- Immobility Time ([11]; 3 mg/kg i.p.): 175.29 ± 18.1 s
- decrease of immobility time vs vehicle-treated group ([11]; 10 mg/kg): about 36%
- Immobility Time ([11]; 10 mg/kg i.p.): 163.63 ± 11.2 s
- Binomial B-Value ([12]; 1 µM): 0.0707
- Number of Revertants ± SD ([12]; 1 µM): 2.00 ± 1.00
- Binomial B-Value ([12]; 10 µM): 0.0707
- Number of Revertants ± SD ([12]; 10 µM): 2.00 ± 1.00
- number of metabolites formed ([13]; RLMs, 120 min): six
- parent biotransformed ([13]; RLMs, 120 min): more than 90%
- parent remaining (metabolic stability) ([13]; compound 1, RLMs): < 10%
- Emax ([14]; Table S2, read-out: 5-HT2A Antagonist mode Emax): 0%
- Emax ([14]; read-out: 5-HT2AR Agonist Mode Emax): 58 ± 9.7%
- effective dose in NOR test ([4]; i.p.): 3 mg/kg
- Total Distance ([15]; 1 mg/kg i.p.): 4520 ± 168 cm
- X Ambulation ([15]; 1 mg/kg i.p.): 172 ± 6
- Y Ambulation ([15]; 1 mg/kg i.p.): 99 ± 6
- Total Distance ([15]; 3 mg/kg i.p.): 3995 ± 218 cm
- X Ambulation ([15]; 3 mg/kg i.p.): 146 ± 10
- Y Ambulation ([15]; 3 mg/kg i.p.): 82 ± 7
- decrease of total distance ([15]; 10 mg/kg i.p.): 20%
- Total Distance ([15]; 10 mg/kg i.p.): 3681 ± 256; p < 0.05 F(3,24) = 4.5291; p < 0.05 cm
- X Ambulation ([15]; 10 mg/kg i.p.): 140 ± 11 F(3,24) = 3.8035; p < 0.05
- Y Ambulation ([15]; 10 mg/kg i.p.): 83 ± 8 F(3,24) = 1.9215; NS
- Ki [16]: 4760 ± 1190 nM
- Open Arms % of entries ([17]; 1 mg/kg i.p.): 32.59 ± 4.23%
- Open Arms % of time ([17]; 1 mg/kg i.p.): 25.76 ± 6.11%
- Open Arms Distance ([17]; 1 mg/kg i.p.): 788 ± 175 cm
- Open Arms Entries ([17]; 1 mg/kg i.p.): 9.88 ± 1.99
- Open Arms Time ([17]; 1 mg/kg i.p.): 58.90 ± 14.20 s
- Open Arms % of entries ([17]; 3 mg/kg i.p.): 29.49 ± 3.48%
- Open Arms % of time ([17]; 3 mg/kg i.p.): 10.27 ± 2.05%
- Open Arms Distance ([17]; 3 mg/kg i.p.): 307 ± 78 cm
- Open Arms Entries ([17]; 3 mg/kg i.p.): 6.14 ± 0.77
- Open Arms Time ([17]; 3 mg/kg i.p.): 24.81 ± 5.24 s
- Open Arms % of entries ([17]; 10 mg/kg i.p.): 42.23 ± 9.09%
- Open Arms % of time ([17]; 10 mg/kg i.p.): 18.34 ± 4.19%
- Open Arms Distance ([17]; 10 mg/kg i.p.): 538 ± 104 cm
- Open Arms Entries ([17]; 10 mg/kg i.p.): 7.20 ± 1.66
- Open Arms Time ([17]; 10 mg/kg i.p.): 43.36 ± 9.08 s
- anxiolytic-like activity in EPM test ([17]; i.p., 60 min before test): did not show anxiolytic-like activity
- Ki [18]: 6 ± 1 nM
- Ki [19]: 320 ± 19 nM
